# Laboratory results published in patent US20250213707A1, “COMPOUND FOR INCREASING EFFICACY OF ONCOLYTIC VIRUSES” (ABLEVIA BIOTECH GMBH, priority 2022, published 2025).
# Experiments:
# mAb Mac2-158 = experiment: Epitope mapping of mAb Mac2-158 with circular peptides of human CD163 SRCR domain 1; type: binding; conditions: circular peptides aligned to SRCR domain 1 of human CD163
# From the text: As a result, the following sequences (as well as motifs derived therefrom) are highly suitable epitopes anti-CD163 antibodies and fragments thereof used as SADC biopolymer scaffold: […]
# [1] = tested on: IgG from human donors (anti-measles virus antibodies); type: binding; set-up: key: X: The peptides belonging to the Top 10% hits
# [2] = tested on: IgG from human donors (anti-AAV antibodies); experiment: Screen for anti-AAV antibodies in human sera, 2452 linear 15-amino-acid AAV peptides on microarrays (Table 1); type: binding; set-up: key to group I: X: the deduplicated aggregate of the respective top 10 peptide hits for each donor was compiled and designated as group I; key to group II: X: the deduplicated aggregate of the respective top 25 peptide hits for each donor was compiled and designated as group II; key to group III: X: the deduplicated aggregate of the respective top 50 peptide hits for each donor was compiled and designated as group III; conditions: human donor IgG binding to linear 15-amino-acid AAV peptides on microarray, fluorescence; for group I: membership in deduplicated aggregate of top 10 peptide hits for each donor; for group II: membership in deduplicated aggregate of top 25 peptide hits for each donor; for group III: membership in deduplicated aggregate of top 50 peptide hits for each donor
# Method in brief: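 Protein G-purified IgG from human donor blood incubated with microarrays of 2452 linear 15-mer peptides from 16 AAVs; binding read by fluorescence. Background-subtracted signals ranked per donor, with top 10, 25, 50 and 250 hits pooled and deduplicated into groups I-IV.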
# mAb 9C12 = experiment: Epitope mapping of monoclonal antibody 9C12 against cyclic peptides of the AdV hexon protein (peptide microarray); type: binding, mice; conditions: cyclic 7mer, 10mer, 13mer peptides of AdV hexon
# Experimental: Monoclonal antibody 9C12 (alias mAB TC31-9C12·C9-s) was generated by immunizing mice with the hexon protein (Uniprot ID: P04133 which corresponds to GenBank: BAG48782.1). […] In brief, diluted antibody was incubated with GFP-expressing replication-defective Ad vector and subsequently added to Hela cells followed by fluorescence readout. […] The binding signal of mAb 9C12 to the peptides yielded several candidates that could be aligned and clustered against the protein. An epitopic cluster region of 20 amino acids was identified from which paratope binding peptides can be preferentially derived. Below are the aligments of the corresponding peptide hits from this screen. […] Cyclic peptides were selected out of up to 50 top binders in this experiment.
Substance,peptide number among the top 20 peptide hits of mAb Mac2-158 (mAb Mac2-158),top 10% [1],group I [2],group II [2],group III [2],ranked binding signal obtained from the microarray (01 binds strongest) (mAb 9C12)
365 (CSGRVEVKVQEEW) [compound 365],07,,,,,
ANNLTSTVQIFADS (REGION 1..14: note = peptide derived from viral capsid protein) [SEQ ID NO: 1895],,X,X,X,X,
DEEEIRTTNPVATE (REGION 1..14: note = peptide derived from viral capsid protein) [SEQ ID NO: 1902],18,X,X,X,X,
FGKQGAGRDNVDYS [SEQ ID NO: 1915],,X,X,X,X,
FNIQVKEVTTNDGV (REGION 1..14: note = peptide derived from viral capsid protein) [SEQ ID NO: 1910],06,,X,X,X,
GETTRPATAAQTQV [SEQ ID NO: 1906],01,,X,X,X,
GKKRPVDQSPQEPD (REGION 1..14: note = peptide derived from viral capsid protein) [SEQ ID NO: 1919],,X,X,X,X,
GQTGDSESVPDPQP [SEQ ID NO: 1911],08,,X,X,X,
IFNIQVKEVTTSNG (REGION 1..14: note = peptide derived from viral capsid protein) [SEQ ID NO: 1907],02,,X,X,X,
KIFNIQVKEVTTSN (REGION 1..14: note = peptide derived from viral capsid protein) [SEQ ID NO: 1896],20,X,X,X,X,
KRPVDQSPQEPDSS (REGION 1..14: note = peptide derived from viral capsid protein) [SEQ ID NO: 1986],,,X,X,X,19
KSVNVDFTVDTNGV (REGION 1..14: note = peptide derived from viral capsid protein) [SEQ ID NO: 1987],,,X,X,X,20
KTAPGKKRPVDQSP (REGION 1..14: note = peptide derived from viral capsid protein) [SEQ ID NO: 1920],,X,X,X,X,
LEDNLSEGIREWWD (REGION 1..14: note = peptide derived from viral capsid protein) [SEQ ID NO: 1898],04,,X,X,X,
LIKNTPVPADPPTT (REGION 1..14: note = peptide derived from viral capsid protein) [SEQ ID NO: 1900],12,,X,X,X,
LSRTQSTGGTQGTQ [SEQ ID NO: 1973],,,X,X,X,06
PEIQYTSNYNKSVN (REGION 1..14: note = peptide derived from viral capsid protein) [SEQ ID NO: 1921],,X,X,X,X,
PQYGYLTLNNGSQA (REGION 1..14: note = peptide derived from viral capsid protein) [SEQ ID NO: 1901],14,,X,X,X,
QLKAGDNPYLRYNH (REGION 1..14: note = peptide derived from viral capsid protein) [SEQ ID NO: 1913],13,,X,X,X,
SFITQYSTGQVSVE (REGION 1..14: note = peptide derived from viral capsid protein) [SEQ ID NO: 1914],17,,X,X,X,
STNLQRGNLALGET [SEQ ID NO: 1894],,X,X,X,X,
TIANNLTSTIQVFT (REGION 1..14: note = peptide derived from viral capsid protein) [SEQ ID NO: 1968],,,X,X,X,01
TQGTQQLLFSQAGP [SEQ ID NO: 1974],,,X,X,X,07
TQYSTGQVSVEIEW (REGION 1..14: note = peptide derived from viral capsid protein) [SEQ ID NO: 1969],,,X,X,X,02
TRPATAPQIGTVNS [SEQ ID NO: 1905],,X,X,X,X,
VTQNEGTKTIANNL [SEQ ID NO: 1970],,,X,X,X,03
WLEDNLSEGIREWW (REGION 1..14: note = peptide derived from viral capsid protein) [SEQ ID NO: 1971],,,X,X,X,04
YDQQLKAGDNPYLK (REGION 1..14: note = peptide derived from viral capsid protein) [SEQ ID NO: 1924],,X,X,X,X,
YFGYSTPWGYFDFN (REGION 1..14: note = peptide derived from viral capsid protein) [SEQ ID NO: 1972],,,X,X,X,05
YLYYLNRTQGTTSG [SEQ ID NO: 1925],,X,X,X,X,
